# Patent US8338472B2, “Hexahydrocyclopentyl[F]indazole carboxamides and derivatives thereof as selective glucocorticoid receptor modulators” (Merck Sharp & Dohme Corp., priority 2008, dated 2012)
# Read-outs that look alike come from different tables or passages of the source.
# Experiments:
# Glucocorticoid Receptor = molecular target: T1, Glucocorticoid Receptor (Homo sapiens, UniProt P04150); test: Trans-Activation Modulation of Glucocorticoid Receptor (GRAMMER), MMTV-LUC reporter gene in A549 cells; format: cell-based; settings: Table 1; for Emax: A549, A549 cells, Emax relative to 300 nM dexamethasone, read-out: Transactivation A549 Cells GRAMMER Emax; for EC50: inflection point, A549 cells, read-out: Transactivation A549 Cells GRAMMER IP
# T1 construct: These cells express large amount of the GR and are very responsive to GC treatment; endogenous in cells; host or cells: A549 cells transiently transfected with the MMTV-LUC reporter
# T1 sequence (P04150 1-777): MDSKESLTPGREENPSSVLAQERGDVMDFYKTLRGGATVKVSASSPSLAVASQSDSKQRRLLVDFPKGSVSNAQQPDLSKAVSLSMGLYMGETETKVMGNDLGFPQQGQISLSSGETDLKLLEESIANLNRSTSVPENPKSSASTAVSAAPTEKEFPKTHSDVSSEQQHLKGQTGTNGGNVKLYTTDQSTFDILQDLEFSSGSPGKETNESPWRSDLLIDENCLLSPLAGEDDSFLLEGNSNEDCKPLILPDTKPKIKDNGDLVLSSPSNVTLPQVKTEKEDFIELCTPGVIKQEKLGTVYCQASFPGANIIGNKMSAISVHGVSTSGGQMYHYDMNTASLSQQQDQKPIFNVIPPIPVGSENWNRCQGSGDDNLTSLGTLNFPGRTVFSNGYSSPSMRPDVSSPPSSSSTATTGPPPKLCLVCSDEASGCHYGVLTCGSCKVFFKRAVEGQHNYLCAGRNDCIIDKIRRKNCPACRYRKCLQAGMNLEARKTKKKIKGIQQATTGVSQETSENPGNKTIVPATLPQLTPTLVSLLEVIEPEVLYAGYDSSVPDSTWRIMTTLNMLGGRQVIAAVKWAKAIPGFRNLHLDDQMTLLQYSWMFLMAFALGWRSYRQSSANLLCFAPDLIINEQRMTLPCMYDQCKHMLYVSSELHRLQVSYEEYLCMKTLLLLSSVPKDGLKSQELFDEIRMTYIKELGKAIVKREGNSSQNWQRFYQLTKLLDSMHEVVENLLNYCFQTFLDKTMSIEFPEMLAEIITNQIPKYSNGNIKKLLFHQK
# From the text: Trans-Activation Modulation of Glucocorticoid Receptor (GRAMMER)
# This assay assesses the ability of test compounds to control transcription from the MMTV-LUC reporter gene in lung adenocarcinoma A549 cells or MDA-MB-453 cells, a human breast cancer cell line that naturally expresses the human GR. The assay measures induction of a modified MMTV LTR/promoter linked to the LUC reporter gene.
# The routine transient assay consists of plating 7,000-25,000 cells/well of a white, clear-bottom 96-well plate. Alternatively, 384-well plates can be used at a cell concentration of 10,000/well. The media that the cells are plated in is “exponential growth medium” which consists of phenol red-free RPMI1640 containing 10% FBS, 4 mM L-glutamine, 20 mM HEPES, 10 ug/mL human insulin, and 20 ug/mL gentamicin. Incubator conditions are 37° C. and 5% CO2. The transfection is done in batch mode. The cells are trypsinized and counted to the right cell number in the proper amount of fresh media. It is then gently mixed with the FuGene6/DNA mix and plated onto the 96 or 384-well plate, all the wells receive 100 uL or 40 uL, respectively, of medium+lipid/DNA complex then incubated 37° C. overnight. The transfection cocktail consists of serum-free OptiMEM, FuGene6 reagent and DNA. The manufacturer's (Roche Biochemical) protocol for cocktail setup is as follows: The lipid to DNA ratio is approximately 2.5:1 and the incubation time is 20 min at room temperature. Sixteen to 24 hours after transfection, the cells are treated with dexamethasone to a final concentration of 10 nM as well as the compound of interest, such that final DMSO (vehicle) concentration is equal to or less than 1%. Each plate also contains samples that are treated with 10 nM dexamethasone alone, which is used as the 100% activity control. The cells are exposed to the compounds for 24 hours. After 24 hours, the cells are lysed by a Promega cell culture lysis buffer for approximately 30 min and then the luciferase activity in the extracts is assayed in the 96-well format luminometer. In 384-well format, Steady-Glo (Promega) or Steady-Lite (PerkinElmer) can be used by adding an equal volume of reagent to the media present in each well. Activity induced by 10 nM dexamethasone alone is set at 100% activity. Antagonist activity is calculated by determining the decrease in dexamethasone-induced activity in response to compound treatment relative to samples that were treated with dexamethasone alone. […] This transactivation assay can be performed in an agonist and antagonist mode to identify these different activities.
# Activity of test compounds is calculated as the Emax relative to the activity obtained with 300 nM dexamethasone. Activity of test compounds is calculated as the Emax relative to the activity obtained with 300 nM DEX. […] The action of compounds is also tested in an antagonist mode (Anti-GRAMMER) in which the cells are treated with medium containing an agonist such as 10 nM DEX and the ability to agents to inhibit the activation by an agonist is measured.
# human GR = molecular target: T2, human GR (Homo sapiens, UniProt P04150); test: Transrepression Assay (GITAR), TNFα-β-lactamase reporter gene in U937 cells; format: cell-based; settings: for GITAR Greater than by GRAMMER % SEP: GITAR Emax minus GRAMMER Emax; for EC50: inflection point, U937 cells, read-out: Transrepression U937 Cells GITAR IP
# T2 construct: U937 cells contain an endogenous glucocorticoid receptor (GR); endogenous in cells; host or cells: U937 cells stably transfected with the TNF-alpha promoter/beta-lactamase reporter
# T2 sequence (P04150 1-777): T1 sequence (P04150 1-777)
# From the text: Transrepression Assay (GITAR)
# This assay assesses the ability of test compounds to control transcription from the TNFα-β-lactamase reporter gene in U937 cells, a human myelomonocytic leukemia cell line that naturally expresses the human GR. The assay measures compound dependent-repression of the TNFa promoter linked to a reporter gene.
# The human U937 cells that had been stablely transfected with the TNF-α promoter driving β-lactamase are used for this assay. U937 cells contain an endogenous glucocorticoid receptor (GR). Cells are maintained in RPMI 1640 Growth medium (Gibco Cat#11875-093) containing 25 mM HEPES, 10% FBS, 2 mM L-Glutamine, 1 mM Sodium pyruvate, 25 μg/ml Gentamicin (Gibco Cat#15710-064), 1:1000 2-Mercaptoethanol (Gibco Cat#21985-023) and 0.8 mg/ml G418 (Gibco Cat#10131-027). The density of the cells in the flask needs to be about 1×10^6−3×10^6/ml at the time of harvest. Usually, the cells are split to 1.2˜1.4×10^5/ml (1:10) 3 days prior to the assay. 50,000 cells/well are plated in 96 well black-walled plates the day of assay. Test compounds are added 10 pt/well, and cells are incubated at 37° C. for 30-45 min. For assaying compounds, first dilute 1:10 in DMSO to make 1 mM, then further dilute 1:100 in medium to make 10× stock prior to adding to the cells. Add 50 ng/ml PMA (Sigma, cat# P8139) 10 μL/well to a final concentration 5 ng/ml, and 1 μg/ml LPS (Sigma, cat# L4130) 10 μL/well to a final concentration 100 ng/ml. Incubate cells at 37° C. overnight for ˜18 hr. PMA is stored frozen as 100 μg/ml stock in DMSO. Dilute 1:10 in DMSO for a working stock of 10 μg/ml and store at −20C. For assaying, dilute the […] working stock 1:200 in medium to make a 10× solution (50 ng/ml). Store frozen LPS at 1 mg/ml in PBS, dilute 1:1000 in medium to make 10× (1 μg/ml) for the assay. Add 6× loading buffer (CCF2−AM) 20 μL/well, and incubate at room temperature for 70-90 min. […] The activity repressed by 100 nM dexamethasone alone is set as 100% activity.
# [1] = molecular target: T3, glucocorticoid receptor (GR) (Homo sapiens, UniProt P04150); test: Ligand binding assay (GR BIND), 3H-dexamethasone displacement in MDA-MB-453 cell lysate; settings: GR BIND Ki, Table 1
# T3 sequence (P04150 1-777): T1 sequence (P04150 1-777)
# [2] = U-937, U937 cells, activity repressed by 100 nM dexamethasone = 100%, Table 1, read-out: Transrepression U937 Cells GITAR Emax
# [3] = U-937, text statement, 100 nM dexamethasone = 100%, read-out: maximal activity in the transrepression assay (GITAR)
SMILES,Emax (Glucocorticoid Receptor) [%],EC50 (Glucocorticoid Receptor) [nM],GITAR Greater than by GRAMMER % SEP (human GR; Table 1) [%],Emax (human GR; [2]) [%],Emax (human GR; [3]) [%],EC50 (human GR; Table 1) [nM],Ki [1] [nM]
"C[C@]12Cc3cnn(-c4ccc(F)cc4)c3C=C1CC[C@@H]2C(=O)N(CCC#N)CCC#N [Compound 13, (4αR,5S)-N,N-bis(2-cyanoethyl)-1-(4-fluorophenyl)-4α-methyl-1,4,4α,5,6,7-hexahydrocyclopenta[f]indazole-5-carboxamide]",14.4,519,13.6,28,> 5,1080,35.3
"CCCN(CCC)C(=O)[C@H]1CCC2=Cc3c(cnn3-c3ccc(F)cc3)C[C@@]21C [Compound 1, (4αR,5S)-1-(4-Fluorophenyl)-4α-methyl-N,N-dipropyl-1,4,4α,5,6,7-hexahydrocyclopenta[f]indazole-5-carboxamide]",45.3,177,22.2,67.5,> 5,328,1.7
"CC(C)CN(C)C(=O)[C@H]1CCC2=Cc3c(cnn3-c3ccc(F)cc3)C[C@@]21C [Compound 54, (4αR,5S)-1-(4-fluorophenyl)-N-isobutyl-N,4α-dimethyl-1,4,4α,5,6,7-hexahydrocyclopenta[f]indazole-5-carboxamide]",3.1,1250,37.4,40.5,> 5,2210,32.1
"CCN(Cc1ccccc1)C(=O)[C@H]1CCC2=Cc3c(cnn3-c3ccc(F)cc3)C[C@@]21C [Compound 52, (4αR,5S}-N-benzyl-N-ethyl-1-(4-fluorophenyl)-4α-methyl-1,4,4α,5,6,7-hexahydrocyclopenta[f]indazole-5-carboxamide]",11.6,1710,21.7,33.2,> 5,971,2.6
"C[C@]12Cc3cnn(-c4ccc(F)cc4)c3C=C1CC[C@@H]2C(=O)NC(Cc1ccccc1)c1ccccc1 (stereo partly drawn) [Compound 2, (4αR,5S)-N-(1,2-diphenylethyl)-1-(4-fluorophenyl)-4α-methyl-1,4,4α,5,6,7-hexahydrocyclopenta[f]indazole-5-carboxamide]",3.1,1120,24.5,27.6,> 5,3540,12.7
"CCCCCN(CCO)C(=O)[C@H]1CCC2=Cc3c(cnn3-c3ccc(F)cc3)C[C@@]21C [Compound 38, (4αR,5S)-1-(4-fluorophenyl)-N-(2-hydroxyethyl)-4α-methyl-N-pentyl-1,4,4α,5,6,7-hexahydrocyclopenta[f]indazole-5-carboxamide]",37.5,660,47.3,84.7,> 5,739,14.6
"CN(CCC(F)(F)F)C(=O)[C@H]1CCC2=Cc3c(cnn3-c3ccc(F)cc3)C[C@@]21C [Compound 90, (4αR,5S)-1-(4-fluorophenyl)-N,4α-dimethyl-N-(3,3,3-trifluoropropyl)-1,4,4α,5,6,7-hexahydrocyclopenta[f]indazole-5-carboxamide]",20.3,565,24.2,44.5,> 5,609,17.3
"C[C@]12Cc3cnn(-c4ccc(F)cc4)c3C=C1CC[C@@H]2C(=O)N(CCO)Cc1cc(F)cc(F)c1 [Compound 32, (4αR,5S)-N-(3,5-difluorobenzyl)-1-(4-fluorophenyl)-N-(2-hydroxyethyl)-4α-methyl-1,4,4α,5,6,7-hexahydrocyclopenta[f]indazole-5-carboxamide]",17.1,872,47.1,64.3,> 5,1030,11.1
"C[C@H](O)CN(CCC(F)(F)F)C(=O)[C@H]1CCC2=Cc3c(cnn3-c3ccc(F)cc3)C[C@@]21C [Compound 73, (4αR,5S)-1-(4-fluorophenyl)-N-[(2S)-2-hydroxypropyl]-4α-methyl-N-(3,3,3-trifluoropropyl)-1,4,4α,5,6,7-. hexahydrocyclopenta[f]indazole-5-carboxamide]",71.1,152,18.4,89.5,> 5,137,2.1
